How the values were obtained:
[1] = tested on: differentiated SH-SY5Y cells; experiment: MTT reduction cytotoxicity assay; format: cell-based, human; conditions: for EC50: Homo sapiens, differentiated SH-SY5Y cells, 24 h of exposure, mean (95% CI); for Bottom (baseline, % control) / Top (maximal cell death, % control): fitted MTT curve, SH-SY5Y cells, 24 h
Protocol: (§1) The cells were seeded at a density of 25,000 cells/cm^2. To achieve a more mature neuron-like phenotype, SH-SY5Y cells were initially cultured in a complete medium supplemented with RA (10 µM). Subsequently, 3 days post-seeding, TPA (80 nM) was added to each well, and the cells were maintained for another 3 days until use, thus achieving a dopaminergic phenotype. In all the experiments, the cells were used between passages 22 and 28.
(§2) The differentiated SH-SY5Y cells (25,000 cells/cm^2) and primary rat cortical cultures (150,000 cells/cm^2) were seeded onto 96-well plates as previously described.
(§3) Accordingly, 6 days after seeding (differentiated SH-SY5Y cells) or at 8 DIV (primary cultures), the cells were exposed, for 24 h (37 °C, 5% CO2), to different concentrations of the drugs (0–1000 µM). Thus, the tested concentrations ranged from 0 to 1000 µM for 2C-T-2 and 2C-T-4; 0 to 500 µM for 2C-T-7; 0 to 250 µM for 25T2-NBOMe, and 0 to 100 µM for 25T4-NBOMe and 25T7-NBOMe.
The MTT reduction assay is based on the capacity of metabolically active cells to reduce the water-soluble yellow tetrazolium dye (MTT) into water-insoluble formazan crystals. In brief, after 24 h of exposure to the tested drugs, the differentiated SH-SY5Y cells were incubated with MTT (0.5 mg/mL in complete medium) for 90 min, at 37 °C, in a 5% CO2-95% air atmosphere. To solubilize the formed formazan crystals, an organic solvent (DMSO) was used, and the absorbance was then measured at 550 nm in a multi-well plate reader (PowerWaveX, BioTek Instruments, Winooski, VT, USA). The cytotoxicity was estimated by the percentage of MTT reduction relative to the control cells, and a minimum of 4 independent experiments were conducted in triplicate.

[2] = tested on: differentiated SH-SY5Y cells; experiment: Intracellular ATP levels, luciferin-luciferase bioluminescence; format: cell-based, human
Protocol: Adenosine triphosphate (ATP) is often considered the primary energy currency of cells, being essential for several cellular activities, such as active transport, metabolism, and cell signaling, among many others. The intracellular ATP levels were measured using a bioluminescence method, consisting of the reaction between luciferin and ATP in the presence of luciferase, where the resulting light intensity is directly proportional to the amount of ATP present in the cells.
Thus, the SH-SY5Y cells were seeded onto 6-well plates (25,000 cells/cm^2) following the previously described seeding and differentiation protocol. On the day of the experiment, the cells were exposed to different concentrations of the tested drugs (EC20 and EC50) for 24 h (37 °C, 5% CO2). At the end of the incubation period, the cells were centrifuged (5 min, 250× g, 4 °C), the supernatants were rejected, and proteins were precipitated with 5% HClO4 for at least 30 min (4 °C). Subsequently, the acidic samples were collected from the plates, centrifuged (5 min, 16,000× g, 4 °C), and the supernatants were stored until further ATP analysis (−80 °C). To assess protein content, the pellets were resuspended in 1 M NaOH, maintained at 4 °C overnight, and stored until further analysis (−20 °C). A Bio-Rad DC™ protein assay kit (Bio-Rad Laboratories, Hercules, CA, USA) was used to analyze protein content, in accordance with the manufacturer’s guidelines.
Before the ATP quantification, the acidic samples were diluted (1:5) with 5% HClO4, and the diluted samples/standards were neutralized with an ice-cold KHCO3 solution (1:1) and centrifuged (16,000× g, 5 min, 4 °C). Then, 75 µL of each sample/standard supernatant was transferred into a white 96-well plate, 75 µL of a luciferin (300 µM)-luciferase (3,000,000 U/mL) solution (10–90%, respectively) was added, and bioluminescence (560 nm, 28 °C) was immediately measured in a multi-well plate reader (PowerWaveX, BioTek Instruments, Winooski, VT, USA).
ATP levels were standardized to protein content. The results are presented as a percentage relative to the control cells (0 µM). A minimum of 6 independent experiments were conducted in duplicate.

[3] = tested on: primary rat cortical cultures; experiment: Neutral red (NR) uptake cytotoxicity assay; format: cell-based; conditions: for Bottom (baseline, % control) / Top (maximal cell death, % control): fitted NR curve, primary rat cortical neurons, 24 h; for EC50: primary rat cortical cultures, 24 h of exposure, mean (95% CI)
Protocol: Female Wistar rats were obtained from Charles River Laboratories. The animals were allowed free access to rat chow and water, being maintained on a 12 h/12 h light/dark cycle, under controlled temperature (20 ± 2 °C) and humidity (40–60%). Primary cortical cultures were prepared as previously described. Briefly, for embryo collection, the pregnant female Wistar rats were anesthetized with isoflurane and subsequently administered ketamine and xylazine (200 + 100 μL, intraperitoneal). At the end of the dissection procedures, the female rat was euthanized with the administration of sodium pentobarbital ([…]). The embryos were used between embryonic day 16 (E16) and E19, considering the mating day as E0. The embryos were dissected from the uterus, and the heads were decapitated and placed in ice-cold 0.1 M PBS supplemented with 0.6% (w/v) glucose. The cortex dissection was performed under a Zeiss stereo microscope (Stemi DV4). Following trypsinization (0.05% trypsin/EDTA) and DNAse I treatment, the tissue pieces were mechanically dissociated, and the cells seeded in freshly prepared neurobasal medium (supplemented with 2% B-27, 100 U/mL of penicillin, 100 μg/mL of streptomycin, and 1% GlutaMAX^TM supplement) at a density of 150,000 cells/cm^2 in 96-well plates precoated, overnight, with 0.05 mg/mL PLL solution (prepared in 0.1 M borate buffer, pH 8.5). The cultures were maintained at 37 °C in a 5% CO2 air atmosphere. The medium was renewed at 4 days in vitro (DIV) by replacing half of the volume with fresh medium, and the cultures were used at 8 DIV.
as §2, §3
(§4) The NR uptake assay is based on the detection of viable cells through the incorporation of the NR dye by the cell’s lysosomes. In brief, after 24 h of exposure to the tested drugs, the differentiated SH-SY5Y cells and primary rat cortical cultures were incubated with NR (50 µg/mL in complete medium) for 90 or 210 min, respectively, at 37 °C, in a 5% CO2-95% air atmosphere. To extract the absorbed dye, an acidified ethanol solution was used, and the absorbance was then measured at 540 nm in a multi-well plate reader (PowerWaveX, BioTek Instruments, Winooski, VT, USA). The cytotoxicity was estimated by the percentage of NR uptake relative to the control cells, and a minimum of 4 independent experiments were conducted in triplicate.

[4] = tested on: differentiated SH-SY5Y cells; experiment: Neutral red (NR) uptake cytotoxicity assay; format: cell-based, human; conditions: for EC50: Homo sapiens; for Bottom (baseline, % control) / Top (maximal cell death, % control): fitted NR curve, SH-SY5Y cells; for EC20 (concentration inducing 20% of cytotoxicity) / EC80 (concentration inducing 80% of cytotoxicity): NR uptake
Protocol: as §1, §2, §3, §4

[5] = bound stated for both SH-SY5Y cells and primary rat cortical cultures, 24 h, read-out: EC50 values, NR uptake assay, both cellular models
[6] = differentiated SH-SY5Y cells, 24 h of exposure, mean (95% CI), read-out: NR EC50 Values
[7] = differentiated SH-SY5Y cells, 24 h, mean (95% CI)

SMILES | EC50 [1] | Bottom (baseline, % control) [1] | Top (maximal cell death, % control) [1] | decrease of intracellular ATP levels relative to control cells ([2]; drug at its EC20, 24 h) | decrease of intracellular ATP levels relative to control cells ([2]; drug at its EC50, 24 h) | Bottom (baseline, % control) [3] | Top (maximal cell death, % control) [3] | EC50 [3] | EC50 [4, 5] | EC50 [4, 6] | Bottom (baseline, % control) ([4]; 24 h) | Top (maximal cell death, % control) ([4]; 24 h) | EC20 (concentration inducing 20% of cytotoxicity) [4, 7] | EC80 (concentration inducing 80% of cytotoxicity) [4, 7]
CCCSc1cc(OC)c(CCNCc2ccccc2OC)cc1OC.Cl [25T7-NBOMe, 2-(2,5-dimethoxy-4-(propylthio)phenyl)-N-(2-methoxybenzyl)ethan-1-aminium chloride] | 23.3 µM | 2.444 % control | 96.91 % control | 12.0% | 21.4% | 3.972 % control | 82.95 % control | 14.4 µM | < 22 µM | 21.8 µM | 8.660 % control | 94.74 % control |  | 
COc1cc(SC(C)C)c(OC)cc1CCN.Cl [2C-T-4, 2-(4-(isopropylthio)-2,5-dimethoxyphenyl)ethan-1-aminium chloride] | 191 µM | 4.106 % control | 99.28 % control | 17.8% | 28.7% | 0.7855 % control | 82.56 % control | 110 µM |  | 154 µM | 5.069 % control | 96.98 % control | 81.5 (79.9 to 92.1) μM | 291.4 (255.9 to 342.3) μM
CCCSc1cc(OC)c(CCN)cc1OC.Cl [2C-T-7, 2-(2,5-dimethoxy-4-(propylthio)phenyl)ethan-1-aminium chloride] | 92.3 µM | 5.625 % control | 100.0 % control | 16.9% | 24.1% | 1.452 % control | 84.63 % control | 73.6 µM | < 75 µM | 74.5 µM | 6.754 % control | 97.99 % control | 39.5 (34.4 to 44.4) μM | 140.5 (125.4 to 161.2) μM
COc1cc(SC(C)C)c(OC)cc1CCNCc1ccccc1OC.Cl [25T4-NBOMe, 2-(4-(isopropylthio)-2,5-dimethoxyphenyl)-N-(2-methoxybenzyl)ethan-1-aminium chloride] | 36 µM | 1.753 % control | 100.0 % control | 14.6% | 21.8% | 2.059 % control | 83.51 % control | 19.9 µM |  | 35.7 µM |  | 100.0 % control |  | 
CCSc1cc(OC)c(CCNCc2ccccc2OC)cc1OC.Cl [25T2-NBOMe, 2-(4-(ethylthio)-2,5-dimethoxyphenyl)-N-(2-methoxybenzyl)ethan-1-aminium chloride] | 46.8 µM | 3.123 % control | 95.97 % control | 16.0% | 23.5% | 3.637 % control | 81.45 % control | 26.5 µM | > 25 µM | 37.4 µM | 1.962 % control | 98.41 % control |  | 
CCSc1cc(OC)c(CCN)cc1OC.Cl [2C-T-2, 2-(4-(ethylthio)-2,5-dimethoxyphenyl)ethan-1-aminium chloride] | 306 µM | 4.516 % control | 97.13 % control | 18.1% | 24.8% | 1.639 % control | 83.85 % control | 216 µM | > 215 µM | 246 µM | 4.054 % control | 100.0 % control | 123.2 (107.1 to 138.8) μM | 491.0 (413.7 to 514.4) μM
